Results on 24 compounds are retold here after US12304899B2, “Factor XI activation inhibitors” (Merck Sharp & Dohme LLC, priority 2019, dated 2025).

T1 sequence (P03951 19-625): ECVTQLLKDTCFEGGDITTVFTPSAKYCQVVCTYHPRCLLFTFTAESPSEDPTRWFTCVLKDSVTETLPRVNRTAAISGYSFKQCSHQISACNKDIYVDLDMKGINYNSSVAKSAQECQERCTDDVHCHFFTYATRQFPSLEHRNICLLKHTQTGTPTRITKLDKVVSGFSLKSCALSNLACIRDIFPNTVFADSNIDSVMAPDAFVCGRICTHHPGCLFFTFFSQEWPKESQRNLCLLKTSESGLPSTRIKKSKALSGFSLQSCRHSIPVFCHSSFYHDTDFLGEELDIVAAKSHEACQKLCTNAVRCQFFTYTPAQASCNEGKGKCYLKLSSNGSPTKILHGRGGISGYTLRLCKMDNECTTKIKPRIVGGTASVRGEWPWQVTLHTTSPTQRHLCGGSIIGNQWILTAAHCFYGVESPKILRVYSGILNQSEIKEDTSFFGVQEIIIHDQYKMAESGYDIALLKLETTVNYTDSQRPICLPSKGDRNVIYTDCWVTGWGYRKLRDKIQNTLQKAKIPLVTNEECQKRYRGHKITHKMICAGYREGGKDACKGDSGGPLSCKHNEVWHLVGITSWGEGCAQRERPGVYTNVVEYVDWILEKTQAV

The assay addresses T1, Human coagulation factor (F)XI (Homo sapiens, UniProt P03951).
T1 construct: purchased Haematologic Technologies Inc. (FXI); Enzyme Research Laboratories (FXIIa) HCXI-150 (FXI); HFXIIa (FXIIa)
The assay can be described thus: Inhibition of FXIIa mediated activation of FXI (activation of human Factor XI to XIa by human Factor α-XIIa). The format is biochemical. The following applies: human FXI pre-incubated with compound 30 min at 22° C., activation by human FXIIa 60 min, z-GPR-AFC substrate fluorescence, 4 parameter logistic fit; read-out: Inhibition of FXIIa meditated activation of FXI. An outline of the steps:
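Human FXI (46 nM stock) preincubated 30 min at 22 °C with compound (10-point, 3.333-fold dilutions), then activated by human α-FXIIa (30 nM stock) for 60 min in HEPES/NaCl/CaCl2/PEG buffer, pH 7.4. After quench with a selective FXIIa inhibitor, FXIa generation read by z-GPR-AFC cleavage (60 min, fluorescence 405/510 nm); EC50 from 4-parameter logistic fit.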
For `O=C(c1cc(C(=O)N2CCCCC2)c2cc(OCc3nc4ccccc4s3)c(F)cc2n1)N1CCC(n2cccn2)CC1` [Example 75, (4-(1H-pyrazol-1-yl)piperidin-1-yl)(6-(benzo[d]thiazol-2-ylmethoxy)-7-fluoro-4-(piperidine-1-carbonyl)quinolin-2-yl)methanone], the EC50 came to 18.8 nM.
Regarding `N#Cc1ccc(COc2ccc3nc(C(=O)N4CCC(n5cccn5)CC4)cc(C(=O)N4CCCCC4)c3c2)cc1F` [Example 13, 4-(((2-(4-(1H-pyrazol-1-yl)-piperidine-1-carbonyl)-4-(piperidine-1-carbonyl)-quinolin-6-yl)oxy)methyl)-2-fluorobenzonitrile], the EC50 turned out to be 20 nM.
Regarding `O=C(c1cc(C(=O)N2CCCCC2)c2cc(OCc3nc4ccccc4s3)ccc2n1)N1CCC(c2cc[nH]n2)CC1` [Example 63, (4-(1H-pyrazol-3-yl)piperi-din-1-yl)(6-(benzo[d]-thiazol-2-ylmethoxy)-4-(piperidine-1-carbonyl)-quinolin-2-yl)methanone], the EC50 is 31 nM.
Turning to `N#CC1(c2ccccc2)CCN(C(=O)c2cc(C(=O)N3CCCCC3)c3cc(OCc4ccc(OC(F)F)cc4)ccc3n2)CC1` [Example 36, 1-(6-((4-(difluoro-l3-meth-oxy)phenyl)methoxy)-4-(piperidine-1-carbonyl)quin-oline-2-carbonyl)-4-phenyl-piperidine-4-carbonitrile], the EC50 was determined as 29.1 nM.
The same measure for `N#CC1(c2ccccc2)CCN(C(=O)c2cc(C(=O)N3CCCCC3)c3cc(OCc4ccc(-c5nnco5)cc4)ccc3n2)CC1` [Example 34, 1-(6-((4-(1,3,4-oxadiazol-2-yl)benzyl)oxy)-4-(piperidine-1-carbonyl)quinoline-2-car-bonyl)-4-phenylpiperidine-4-carbonitrile]: 41.4 nM; for `O=C1OCc2cc(COc3ccc4nc(C(=O)N5CCC(n6cccn6)CC5)cc(C(=O)N5CCCCC5)c4c3)ccc21` [Example 19, 5-(((2-(4-(1H-pyrazol-1-yl)-piperidine-1-carbonyl)-4-(piperidine-1-carbonyl)-quinolin-6-yl)oxy)methyl)-isobenzofuran-1(3H)-one]: 31.6 nM; for `Cn1c(COc2ccc3nc(C(=O)N4CCC(C#N)(c5ccccc5)CC4)cc(C(=O)N4CCCCC4)c3c2)nc2ccccc21` [Example 50, 1-(6-((1-methyl-1H-benzo[d]-imidazol-2-yl)methoxy)-4-(piperidine-1-carbonyl)quin-oline-2-carbonyl)-4-phenyl-piperidine-4-carbonitrile]: 33.1 nM.
Consider `O=C(c1cc(C(=O)N2CCCCC2)c2cc(OCc3nc4ccccc4s3)ccc2n1)N1CCC2(CC1)CC2(F)F` [Example 62, (6-(benzo[d]thiazol-2-yl-methoxy)-2-(1,1-difluoro-6-azaspiro[2.5]octane-6-carbonyl)quinolin-4-yl)-(piperidin-1-yl)methanone], for which the EC50 came to 19.1 nM.
Then `N#CC1(c2ccccc2)CCN(C(=O)c2cc(C(=O)N3CCCCC3)c3cc(OCc4ccc(C(F)(F)F)cc4)ccc3n2)CC1` [Example 38, 4-phenyl-1-(4-(piperidine-1-carbonyl)-6-((4-(trifluoro-methyl)benzyl)oxy)quin-oline-2-carbonyl)piperidine-4-carbonitrile], with 49.5 nM; and `O=C(c1cc(C(=O)N2CCCCC2)c2cc(OCc3nc4ccccc4s3)ccc2n1)N1CCC(n2cc(F)cn2)CC1` [Example 69, (6-(benzo[d]thiazol-2-yl-methoxy)-2-(4-(4-fluoro-1H-pyrazol-1-yl)piperi-dine-1-carbonyl)quinolin-4-yl)(piperidin-1-yl) methanone], with 45.9 nM.
With `O=C(c1cc(C(=O)N2CCC(F)CC2)c2cc(OCc3nc4ccccc4s3)ccc2n1)N1CCC(n2cccn2)CC1` [Example 52, (4-(1H-pyrazol-1-yl)piperidin-1-yl)(6-(benzo[d]thiazol-2-ylmethoxy)-4-(4-fluoropiperidine-1-carbonyl)quinolin-2-yl)methanone], the EC50 came to 28.3 nM.
For `CN(C(=O)c1cc(C(=O)N2CCC(n3cccn3)CC2)nc2ccc(OCc3nc4ccccc4s3)cc12)C1CC1` [Example 54, 2-(4-(1H-pyrazol-1-yl)piperi-dine-1-carbonyl)-6-(benzo[d]-thiazol-2-ylmethoxy)-N-cyclo-propyl-N-methylquinoline-4-carboxamide], the EC50 stood at 71.5 nM.
For the compound `O=C(c1cc(C(=O)N2CCCCC2)c2cc(OCc3ccc4nnsc4c3)ccc2n1)N1CCC(n2cccn2)CC1` [Example 6, (4-(1H-pyrazol-1-yl)piperidin-1-yl)(6-(benzo[d][1,2,3]thiadiazol-6-ylmethoxy)-4-(piperidine-1-carbonyl)quinolin-2-yl)methanone], the EC50 turned out to be 49.2 nM.
The same measure for `O=C(c1cc(C(=O)N2CCCCC2)c2cc(OCc3nc4ccccc4s3)ccc2n1)N1CCN(CC(F)F)CC1` [Example 67, (6-(benzo[d]thiazol-2-yl-methoxy)-2-(4-(2,2-difluoroethyl)piperazine-1-carbonyl)quinolin-4-yl)-(piperidin-1-yl)methanone]: 34.7 nM; for `CC(N1CCN(C(=O)c2cc(C(=O)N3CCCCC3)c3cc(OCc4nc5ccccc5s4)ccc3n2)CC1)C(F)(F)F` (stereo not drawn) [Example 66, (6-(benzo[d]thiazol-2-yl-methoxy)-2-(4-(1,1,1-trifluoropropan-2-yl)-piperazine-1-carbonyl)-quinolin-4-yl)(piperidin-1-yl)methanone]: 16.5 nM.
The same measure for `N#CC1(c2ccccc2)CCN(C(=O)c2cc(C(=O)N3CCCCC3)c3cc(OCc4cccc(OC(F)F)c4)ccc3n2)CC1` [Example 33, 1-(6-((3-(difluoro-l3-meth-oxy)phenyl)methoxy)-4-(piperidine-1-carbonyl)quin-oline-2-carbonyl)-4-phenyl-piperidine-4-carbonitrile]: 35.9 nM.
As for `Cn1ncc2cc(COc3ccc4nc(C(=O)N5CCC(n6cccn6)CC5)cc(C(=O)N5CCCCC5)c4c3)ccc21` [Example 17, (4-(1H-pyrazol-1-yl)piperidin-1-yl)(6-((1-methyl-1H-indazol-5-yl)methoxy)-4-(piperidine-1-carbonyl)quinolin-2-yl) methanone], the EC50 is 50.8 nM.
Regarding `N#Cc1cccc(COc2ccc3nc(C(=O)N4CCC(C#N)(c5ccccc5)CC4)cc(C(=O)N4CCCCC4)c3c2)c1` [Example 32, 1-(6-((3-cyanobenzyl)oxy)-4-(piperidine-1-carbonyl)quin-oline-2-carbonyl)-4-phenyl-piperidine-4-carbonitrile], the EC50 is 46.9 nM.
Then `CC1(O)CCN(C(=O)c2cc(C(=O)N3CCCCC3)c3cc(OCc4ccc5c(c4Cl)COC5=O)ccc3n2)C1` (racemic) [Example 4, rac-4-chloro-5-(((2-(3-hydroxy-3-methylpyrrolidine-1-carbonyl)-4-(piperidine-1-carbonyl)quinolin-6-yl)oxy)methyl)isobenzofuran-1(3H)-one], with 9.6 nM; and `N#CC1(c2ccccc2)CCN(C(=O)c2cc(C(=O)N3CCCCC3)c3cc(OCc4ccc(OC(F)(F)F)cc4)ccc3n2)CC1` [Example 35, 4-phenyl-1-(4-(piperidine-1-carbonyl)-6-((4-(trifluoro-methoxy)benzyl)oxy)quin-oline-2-carbonyl)piperidine-4-carbonitrile], with 37.7 nM; and `N#Cc1cc(Cl)ccc1COc1ccc2nc(C(=O)N3CCC(C#N)(c4ccccc4)CC3)cc(C(=O)N3CCCCC3)c2c1` [Example 27, 1-(6-((4-chloro-2-cyanobenzyl)oxy)-4-(piperidine-1l-carbonyl)quinoline-2-carbonyl)-4-phenylpiperidine-4-carbonitrile], with 39 nM.
As for `O=C(c1cc(C(=O)N2CCCC(F)(F)C2)c2cc(OCc3nc4ccccc4s3)ccc2n1)N1CCC(n2cccn2)CC1` [Example 53, (4-(1H-pyrazol-1-yl)piperidin-1-yl)(6-(benzo[d]thiazol-2-ylmethoxy)-4-(3,3-difluoro-piperidine-1-carbonyl)quin-olin-2-yl)methanone], the EC50 stood at 62.6 nM.
Consider `O=C(c1cc(C(=O)N2CCCCC2)c2cc(OCc3ccc(Cl)cc3)ccc2n1)N1CCC(n2cccn2)CC1` [Example 21, (4-(1H-pyrazol-1-yl)piperidin-1-yl)(6-((4-chlorobenzyl)oxy)-4-(piperidine-1-carbonyl)quin-olin-2-yl)methanone], for which the EC50 turned out to be 34.3 nM.
As for `N#CC1(c2ccccc2)CCN(C(=O)c2cc(C(=O)N3CCCCC3)c3cc(OCc4cccc([N+](=O)[O-])c4)ccc3n2)CC1` [Example 29, 1-(6-((3-nitrobenzyl)oxy)-4-(piperidine-1-carbonyl)quin-oline-2-carbonyl)-4-phenyl-piperidine-4-carbonitrile], the EC50 worked out at 39.7 nM.
